One data set has as its system nerve transection. The data set can be described thus: Triceps surae muscle tension after sciatic nerve transection (laceration) injury. The class given is in vivo, rat. Particulars: 150 μg/kg i.p. The protocol:
(§1) Sciatic nerve innervates triceps surae muscle and thus sciatic nerve conduction can be measured in terms of triceps surae muscle contraction. As shown in this experimental setup (FIG. 2) sciatic nerve was electrically stimulated proximal to crush site, and triceps surae muscle tension was measured by force transducer (FT10; Grass Instruments).
(§2) Briefly, Sprague-Dawley (SD) rats were anaesthetized with 3-4% isoflurane, the trachea was cannulated, and the lungs were mechanically ventilated (Harvard Apparatus) with oxygen balanced vaporized 2% isoflurane. The sciatic nerve and triceps surae muscles were exposed by blunt dissection and the calcaneal tendon was severed and linked with braided fishing line to a force transducer. A shielded stimulating electrode was placed under sciatic nerve and injury was performed distal to a stimulating electrode. Sciatic nerve underwent a standardized crush injury with blunt forcep (Miltex #18-1107) and jig or laceration injury with fine scissors. Sciatic nerve crush injury was done 3 mm proximal to trifurcation. The triceps surae muscles were contracted for 10 seconds at 40 Hz, 0.1 ms pulse, and a voltage two times above the motor threshold.

Data set [1] concerns Dorsal skin excision wounds. Description: Dorsal skin excision wound closure. It counts as in vivo, mouse. The protocol: Dorsal skin excision wounds (5-mm diameter) were made on 7-8-week-old wild-type C57BL/6 mice (FIG. 15). Mice were systemically administered saline (control) or 80 μg of 4-AP daily for 14 days. All mice were subjected to functional wound healing and tissue regeneration image-based assays at days 0, 3, 7, 10, and 14. The wound size of each mouse was measured and compared to zero day wound diameter from digital images. The percentage of wound closure was calculated by using the formula:
Wound closure (%)=(area of original wound−area of actual wound)/area of original wound×100.

For data set [2] the following is noted: 150 μg/kg i.p., SD rat.
Experimental: 4-AP stock was prepared in saline and i.p. dose of 150 μg/kg was administered in rats.
Circulating level of 4-AP in rat serum sample was evaluated using ABSciex 4000 Q Trap mass spectrometry coupled with a Waters Acquity UPLC separation (UPLC/MS/MS) system in the Mass Spectrometry Core Facility in College of Medicine of Penn State University.
4-AP-d4 was used as an internal standard. The multiple reaction monitoring mode (MRM) was used to analyze and quantify 4-AP and 4-AP-d4, with the transitions of m/z 95>78 for 4-AP and 99>82 for 4-AP-d4. 4-AP was quantified by using a standard curve which was constructed by plotting the ratio of the peak area of 4-AP to the peak area 4-AP-d4 versus 4-AP concentration (0.01 μM-20 μM). All peaks were integrated and quantified by ABSciex Multiquan 2.1 software.
The conditions of data set [3]: cited from earlier work.
In data set [4] the test system is sciatic nerve crush injury. Description: Triceps surae muscle tension immediately after sciatic nerve crush injury. The class given is in vivo, rat. The protocol: as §1, §2
Data set [5] concerns sciatic nerve crush injury. Particulars: systemic administration (Tseng et al. 2016); cited from earlier work.
Data set [6] deals with sciatic nerve crush injury. The data set can be described thus: Triceps surae muscle tension 3 days post sciatic nerve crush injury. The class given is in vivo, rat. Particulars: 3 days post crush. From the text: Sciatic nerve crush injury was done 3 mm proximal to trifurcation.
Anesthesia was maintained with 2% isoflurane.

Take `Nc1ccncc1` [4-AP, 4-aminopyridine]: the “restoration of nerve conduction upon treatment” value with nerve transection is reported as “does not occur”. In addition, the “reduction in wound area as compared to control animals” value in data set [1] (by seven days, systemic delivery) is on record as “at least 50%”. For the same molecule, the “diameter/width of the wound area” value in data set [1] (day 3, 5 mm wound at day 0, 80 μg daily systemic (saline 5 mm)) is listed as 4.0 mm; in data set [1] (day 7, 80 μg daily systemic (saline 2.7 mm)), 1.5 mm; in data set [1] (day 10, 80 μg daily systemic (saline 1.0)) it was 0.3 mm. In addition, the “wound area reduction as compared to control animals” value in data set [1] (in three days, systemic delivery) is “at least 10%”. Further, the “wound healing compared to saline treated mice” value in data set [1] (systemic administration) was “accelerates the wound healing process”. The “4-AP concentration in serum” value in data set [2] is “tolerable 4-AP concentration in serum”. Further, the “human tolerable limit of serum 4-AP” value in data set [3] is 100 ng/mL. The muscle tension in data set [4] (30 minutes after 4-AP 150 μg/kg i.p. or local thermogel, 2100 g before injury, none post crush) stood at 900 g; in data set [6] (lower stimulation voltage, 30 minutes after 150 μg/kg i.p. or local thermogel), 250 g. The entries for the “Muscle response increase over a crush” value in data set [4] (systemic (150 μg/kg i.p.) or local treatment) and in data set [6] (systemic or local treatment) were 800% and 80%, respectively. The “AUC of muscle tension” value in data set [4] (systemic or local treatment) and in data set [6] (systemic or local treatment) was “significantly increased” throughout. Besides, the peak muscle tension entry in data set [4] (systemic or local treatment) and in data set [6] (systemic or local treatment) was “significantly increased” throughout. Moreover, in data set [5], the “motor functional recovery after sciatic nerve crush injury” value was “improve motor functional recovery after sciatic nerve crush injury”.

Values taken from US20230058178A1, “METHODS AND MATERIALS FOR TREATING NERVE INJURY AND/OR PROMOTING WOUND HEALING” (The Penn State Research Foundation, priority 2020, published 2023).
